Key:
Type in all cases: in vivo
Myzus persicae = assay: B.3 Green Peach Aphid (mixed life stages), systemic artificial diet test; conditions: 72 h, treated aphid diet, 3 days, read-out: mortality in comparison with untreated controls
Source text: For evaluating control of Green Peach Aphid through systemic means the test unit consisted of 96-well-microtiter plates containing liquid artificial diet under an artificial membrane. The compounds were formulated using a solution containing 75% v/v water and 25% v/v DMSO. Different concentrations of formulated compounds were pipetted into the aphid diet, using a custom-built pipette, at two replications. After application, 5-8 adult aphids were placed on the artificial membrane inside the microtiter plate wells. The aphids were then allowed to suck on the treated aphid diet and incubated at about 23±1° C. and about 50±5% relative humidity for 3 days. Aphid mortality and fecundity was then visually assessed.

Aedes aegypti = assay: whole plant or invertebrate; conditions: 48 h, larval mortality, 2 days, read-out: mortality in comparison with untreated controls
Description: For evaluating control of Yellow Fever Mosquito, the test unit consisted of 96-well-microtiter plates containing 200 μl of tap water per well and 5-15 freshly hatched A. aegypti larvae. The active compounds were formulated using a solution containing 75% (v/v) water and 25% (v/v) DMSO. Different concentrations of formulated compounds or mixtures were sprayed onto the insect diet at 2.5 μl, using a custom-built micro atomizer, at two replications.
After application, microtiter plates were incubated at 28±1° C., 80±5% RH for 2 days. Larval mortality was then visually assessed.

Nezara viridula = assay: B.8 Green Soldier Stink Bug, soybean pod spray test; conditions: 120 h, late 3rd instar, after 5 days, read-out: mortality in comparison with untreated controls
Description: The active compound was dissolved at the desired concentration in a mixture of 1:1 (vol:vol) distilled water:aceteone. Surfactant (Kinetic) was added at a rate of 0.01% (vol/vol). The test solution was prepared at the day of use. Soybean pods were placed in 90×50 mm glass Petri dishes lined with moistened filter paper and inoculated with ten late 3rd instar N. viridula. Using a hand atomizer, an approximately 2 ml solution was sprayed into each Petri dish. Treated setup was kept at about 25-26° C. and relative humidity of about 65-70%. Percent mortality was recorded after 5 days.

O=C(Nc1ncc(F)cc1F)c1cc(OC2=NOC(c3cc(Cl)c(F)c(Cl)c3)(C(F)(F)F)C2)ccc1Cl (stereo not drawn) [II-8, 2-chloro-5-[[5-(3,5-dichloro-4-fluoro-phenyl)-5-(trifluoromethyl)-4H-isoxazol-3-yl]oxy]-N-(3,5-difluoro-2-pyridyl)benzamide]
≥ 75%: mortality at 2500 ppm (Myzus persicae) | mortality at 2500 ppm (Aedes aegypti) | mortality at 300 ppm (Nezara viridula)

Source: patent US12595239B2, “Substituted isoxazoline derivatives” (BASF SE, priority 2021, dated 2026)
